Source: patent publication EP0988300B1, “BENZO(5,6)CYCLOHEPTA(1,2-B)PYRIDINE DERIVATIVES FOR THE INHIBITION OF FARNESYL PROTEIN TRANSFERASE” (SCHERING CORPORATION, priority 1997, dated 1998)

Legend:
Human tumor cells = test: Soft Agar Assay (anchorage-independent growth, colony count after MTT staining); assay type: cell-based
Method: Anchorage-independent growth is a characteristic of tumorigenic cell lines. Human tumor cells can be suspended in growth medium containing 0.3% agarose and an indicated concentration of a farnesyl transferase inhibitor. The solution can be overlayed onto growth medium solidified with 0.6% agarose containing the same concentration of farnesyl transferase inhibitor as the top layer. After the top layer is solidified, plates can be incubated for 10-16 days at 37°C under 5% CO2 to allow colony outgrowth. After incubation, the colonies can be stained by overlaying the agar with a solution of MTT (3-[4,5-dimethyl-thiazol-2-yl]-2,5-diphenyltetrazolium bromide, Thiazolyl blue) (1 mg/mL in PBS). Colonies can be counted and the IC50's can be determined.

COS Cell = COS Cell IC50 (Cell-Based Assay), procedures of WO 95/10516
Method: FPT IC50 (inhibition of farnesyl protein transferase, in vitro enzyme assay) was determined following the assay procedures described in WO 95/10516, published April 20, 1995. GGPT IC50 (inhibition of geranylgeranyl protein transferase, in vitro enzyme assay), COS Cell IC50 (Cell-Based Assay), Cell Mat Assay, and anti-tumor activity (in vivo anti-tumor studies) could be determined by the assay procedures described in WO 95/10516. The disclosure of WO 95/10516 is incorporated herein by reference thereto.

human FPT = molecular target: T1, human FPT (Homo sapiens, UniProt P49354+P49356); test: FPT pM IC50 Assay (scintillation proximity assay, biotin-CVLS and (1-3H)-FPP substrates); assay type: biochemical; settings: 30 pM human FPT, 176 nM FPP, 100 nM biotin-CVLS, 37° C for 1 hour
T1 construct: made in house; host or cells: Baculovirus/Sf-9 insect cells
Method: The enzymatic reaction is performed in 50 mM Tris, 5 µM ZnCl2, 5 mM MgCl2, 0.01 % Triton X-100, 5 mM dithiolthreitol (DTT), pH 7.7 (Buffer R) at 37° C for 1 hour. The purified human FPT (> 95 % pure) was derived from a Baculovirus/Sf-9 expression system. The peptide substrate used was biotin-CVLS (SynPep Corp., Dublin, CA) and (1-^3H)-FPP (21.5 Ci/mmol) was obtained from New England Nuclear Life Science Products (Boston, MA). Compounds were initially dissolved to a final concentration of 4 mg/ml in 100 % DMSO and then to 0.25 µg/ml in 100 % DMSO. Subsequent dilutions of the compound were performed in Buffer R.
The enzymatic reaction is performed in a final volume of 100 µl. Reactions are carried out in a 96 well plate format. […] The reaction is stopped using 150 µl of the Stop Solution consisting of 1.3 mg/ml scintillation beads (strepavidin-coated scintillation proximity beads from. Amersham (Arlington Heights, IL), 250 mM EDTA, pH 8.0 and 0.5 % BSA. The radioactivity is measured after 20 minutes at room temperature.
Compounds are evaluated for their ability to inhibit the reaction by measuring the concentration-dependent percent inhibition of the reaction. […] The enzymatic activity was recorded by measuring the CPM/well using a Wallac 1204 Betaplate BS liquid scintillation counter. […]

Row | SMILES | IC50 (Human tumor cells) [µM] | IC50 (COS Cell) [µM] | IC50 (human FPT) [pM]
1 | NC(=O)N1CCC(CC(=O)N2CCC([C@@H]3c4c(Br)cc(Cl)cc4CCc4cc(Br)c[n+]([O-])c43)CC2)CC1 [Example 2] | 0.025 to 0.183 | 0.009 to 0.085 | –
2 | O=C(Cc1cc[n+]([O-])cc1)N1CCC([C@@H]2c3c(Br)cc(Cl)cc3CCc3cc(Br)c[n+]([O-])c32)CC1 [Example 3] | 0.025 to 0.183 | 0.009 to 0.085 | –
3 | O=C(Cc1cc[n+]([O-])cc1)N1CCN(C2c3ccc(Cl)cc3CCc3cc(Br)c[n+]([O-])c32)CC1 (centres unmarked) [Example 7] | 0.025 to 0.183 | 0.009 to 0.085 | 440
4 | NC(=O)N1CCC(CC(=O)N2CCN([C@@H]3c4ccc(Cl)cc4CCc4cc(Br)c[n+]([O-])c43)CC2)CC1 [Example 10] | – | – | 410
